From patent publication EP0609289B1, “IMIDAZOLE DERIVATIVES AND PHARMACEUTICAL COMPOSITIONS CONTAINING THE SAME” (THE UPJOHN COMPANY, priority 1991, dated 1993)

Target: Angiotensin II receptor
Test: In vitro angiotensin II mesenteric artery receptor binding assay (test 1)
Details: rat mesenteric artery membrane fraction, 0.2 nM 125I-Ang II, 22°C, 90 minutes
Method: I) In vitro angiotensin II mesenteric artery receptor binding assay
According to the method (1) by Gunther et al., a membrane fraction was prepared from mesenteric artery of male rat, […] protein equivalent of it and 0.2 nM ^125I-Ang II as well as various concentrations of test compounds were incubated at 22°C for 90 minutes in an incubation buffer (50 mM Tris-HCl, 120 mM NaCl, 5 mM MgCl2. 0.25% bovine serum albumin, pH 7.2) (reaction volume; 200 µl). The incubated was cooled, and the reaction was stopped by addition of ice-cooled phosphate buffer (10 mM phosphate, 140 mM NaCI, pH 7.4, hereinafter referred to as PBS), and then the reaction solution was filtered through a glass fiber filter (Whatman CF/B), the filter was washed, dried, and then the radioactivity of captured ^125I-angiotensin II which bound to the receptor was measured by a γ-counter. Non-specific bound amount was obtained from the reaction in the presence of 1 µM of unlabeled angiotensin II. […] Res., 17:278-286, 1980].

| Molecule | IC50 |
| --- | --- |
| CCCc1nc2c(=O)n3n(c(=O)c2[nH]1)C1CCC3(C(C)(C)O)CC1 [Compound No. 323, 5,8-ethano-5-(1-hydroxy-1-methylethyl)-2-n-propyl-5,6,7,8-tetrahydro-1H-1,3,4a,8a-tetraza-cyclopentanaphthalene-4,9-dione] | > 100 nM |
| CCCc1nc2c(=O)n3n(c(=O)c2n1Cc1ccc(-c2ccccc2-c2nn[nH]n2)cc1)CC(CC)=C(CC)C3 [Compound No. 359, 6,7-diethyl-5,8-dihydro-2-n-propyl-5,6,7,8-tetrahydro-1-[{2'-(1H-tetrazol-5-yl)biphenyl-4-yl}methyl]-1H-1,3,4a,8a-tetraza-cyclopentanaphthalene-4,9-dione] | 35 nM |
| CCCc1nc2c(=O)n3n(c(=O)c2n1Cc1ccc(-c2ccccc2-c2nn[nH]n2)cc1)C(C)CCC3c1nc(C)no1 (stereo not shown) [Compound No. 329, 8-methyl-5-(3-methyloxadiazol-5-yl)-2-n-propyl-5,6,7,8-tetrahydro-1-[{2'-(1H-tetrazol-5-yl)biphenyl-4-yl}methyl]-1H-1,3,4a,8a-tetraza-cyclopentanaphthalene-4,9-dione] | 65 nM |
| CCCc1nc2c(n1Cc1ccc(-c3ccccc3-c3nn[nH]n3)cc1)C(=O)N1CC(C)C(C)CN1C2 (stereo not shown) [Compound No. 378, 6,7-dimethyl-2-n-propyl-5,6,7,8-tetrahydro-1-[{2'-(1H-tetrazol-5-yl)biphenyl-4-yl}methyl]-1H,4H-1,3,4a,8a-tetraza-cyclopentanaphthalene-9-one] | 4.6 nM |
| CCCCc1nc2c(=O)n3n(c(=O)c2n1Cc1ccc(-c2ccccc2-c2nnn[nH]2)cc1)C(C(=O)NC(C)(C)C)CCC3C (stereo not shown) [Compound No. 210, 2-n-butyl-4,9-dioxo-5-methyl-5,6,7,8-tetrahydro-1-[{2'-(1H-tetrazol-5-yl)biphenyl-4-yl}methyl]-1H-1,3,4a,8a-tetraza-cyclopentanaphthalene-8-carboxy-N-t-butylamide] | 29 nM |
| CCCc1nc2c(=O)n3n(c(=O)c2n1Cc1ccc(-c2ccccc2-c2nn[nH]n2)cc1)C1(C(=O)N(CCO)CCO)CCC3CC1 [Compound No. 241, 4,9-dioxo-5,8-ethano-2-n-propyl-5,6,7,8-tetrahydro-1-[{2'-(1H-tetrazol-5-yl)biphenyl-4-yl}methyl]-1H-1,3,4a,8a-tetraza-cyclopentanaphthalene-8-carboxy-N,N-bis(2-hydroxyethyl)amide] | 25 nM |
| CCCCc1nc2c(=O)n3n(c(=O)c2n1Cc1ccc(-c2ccccc2-c2nn[nH]n2)cc1)C1(C(=O)NC(C)(C)C)CCC3CC1 [Compound No. 238, 2-n-butyl-4,9-dioxo-5,8-ethano-5,6,7,8-tetrahydro-1-[{2'-(1H-tetrazol-5-yl)biphenyl-4-yl}methyl]-1H-1,3,4a,8a-tetraza-cyclopentanaphthalene-8-carboxy-N-t-butylamide] | > 100 nM |
| CCCc1nc2c(n1Cc1ccc(-c3ccccc3-c3nn[nH]n3)cc1)C(=O)N1CC(C)=C(C)CN1C2 [Compound No. 382, 5,8-dihydro-6,7-dimethyl-2-n-propyl-1-[{2'-(1H-tetrazol-5-yl)biphenyl-4-yl}methyl]-1H,4H-1,3,4a,8a-tetraza-cyclopentanaphthalene-9-one] | 26 nM |
| CCCCc1nc2c(=O)n3n(c(=O)c2n1Cc1ccc(-c2ccccc2-c2nn[nH]n2)cc1)C1(C(=O)OCC)CCC3CC1 [Compound No. 198, ethyl 2-n-butyl-4,9-dioxo-5,8-ethano-5,6,7,8-tetrahydro-1-[{2'-(1H-tetrazol-5-yl)biphenyl-4-yl}methyl]-1H-1,3,4a,8a-tetraza-cyclopentanaphthalene-8-carboxylate] | > 100 nM |
| CCCc1nc2c(=O)n3n(c(=O)c2n1Cc1ccc(-c2ccccc2-c2nn[nH]n2)cc1)C1(C(=O)N(CC)CC)CCC3CC1 [Compound No. 233, 4,9-dioxo-5,8-ethano-2-n-propyl-5,6,7,8-tetrahydro-1-[{2'-(1H-tetrazol-5-yl)biphenyl-4-yl}methyl]-1H-1,3,4a,8a-tetraza-cyclopentanaphthalene-8-carboxy-N,N-diethylamide] | > 100 nM |
| CCCc1nc2c(=O)n3n(c(=O)c2n1Cc1ccc(-c2ccccc2-c2nnn[nH]2)cc1)C(C(=O)NC(C)(C)C)CCC3C (stereo not shown) [Compound No. 209, 4,9-dioxo-5-methyl-2-n-propyl-5,6,7,8-tetrahydro-1-[{2'-(1H-tetrazol-5-yl)biphenyl-4-yl}methyl]-1H-1,3,4a,8a-tetraza-cyclopentanaphthalene-8-carboxy-N-t-butylamide] | 58 nM |
| CCCCc1nc2c(n1Cc1ccc(-c3ccccc3-c3nn[nH]n3)cc1)C(=O)N1N(C2)C2CCC1(C)CC2 [Compound No. 447, 2-n-butyl-5,8-ethano-8-methyl-5,6,7,8-tetrahydro-1-[{2'-(1H-tetrazol-5-yl)biphenyl-4-yl}methyl]-1H,4H-1,3,4a,8a-tetraza-cyclopentanaphthalene-9-one] | 2.5 nM |
| CCCc1nc2c(=O)n3n(c(=O)c2n1Cc1ccc(-c2ccccc2-c2nn[nH]n2)cc1)C1CCC3(C(=O)N(CCO)CCO)CC1 [Compound No. 239, 4,9-dioxo-5,8-ethano-2-n-propyl-5,6,7,8-tetrahydro-1-[{2'-(1H-tetrazol-5-yl)biphenyl-4-yl}methyl]-1H-1,3,4a,8a-tetraza-cyclopentanaphthalene-5-carboxy-N,N-bis(2-hydroxyethyl)amide] | > 100 nM |
| CCCc1nc2c(=O)n3n(c(=O)c2n1Cc1ccc(-c2ccccc2-c2nn[nH]n2)cc1)C(c1nc(C)no1)CCC3C (stereo not shown) [Compound No. 331, 5-methyl-8-(3-methyloxadiazol-5-yl)-2-n-propyl-5,6,7,8-tetrahydro-1-[{2'-(1H-tetrazol-5-yl)biphenyl-4-yl}methyl]-1H-1,3,4a,8a-tetraza-cyclopentanaphthalene-4,9-dione] | 3.9 nM |
| CCCc1nc2c(=O)n3n(c(=O)c2[nH]1)C(C)CCC3C (stereo not shown) [Compound No. 280, 5,8-dimethyl-2-n-propyl-5 6,7,8-tetrahydro-1H-1,3,4a,8a-tetraza-cyclopentanaphthalene-4,9-dione] | 4.6 nM |
| CCCCc1nc2c(=O)n3n(c(=O)c2n1Cc1ccc(-c2ccccc2-c2nn[nH]n2)cc1)CCCC3 [Compound No. 47, 2-n-butyl-5,6,7,8-tetrahydro-1-[(2'-(1H-tetrazol-5-yl)biphenyl-4-yl)methyl]-1H-1,3,4a,8a-tetraza-cyclopentanaphthalene-4,9-dione] | 5.3 nM |

The remaining lines, values ahead:

| IC50 | Molecule |
| --- | --- |
| 26 nM | CCc1nc2c(=O)n3n(c(=O)c2n1Cc1ccc(-c2ccccc2-c2nnn[nH]2)cc1)C1CCC3CC1 [compound 543, 5,8-ethano-2-ethyl-5,6,7,8-tetrahydro-1-[{2'-(1H-tetrazol-5-yl)biphenyl-4-yl}methyl)-1H-1,3,4a,8a-tetraza-cyclopentanaphthalene-4,9-dione] |
| > 100 nM | CCCCc1nc2c(=O)n3n(c(=O)c2n1Cc1ccc(C(=O)O)cc1)C1CCC3CC1 [compound 544, 2-n-butyl-1-[(4-carboxyphenyl)methyl]-5,8-ethano-5,6,7,8-tetrahydro-1H-1,3,4a,8a-tetraza-cyclopentanaphthalene-4,9-dione] |
| > 100 nM | CCc1nc2c(n1Cc1ccc(-c3ccccc3-c3nnn[nH]3)cc1)C(=O)N1N(C2)C2(CC)CCC1(CC)CC2 [Compound No. 453, 5,8-diethyl-5,8-ethano-2-ethyl-5,6,7,8-tetrahydro-1-[{2'-(1H-tetrazol-5-yl)biphenyl-4-yl}methyl]-1H,4H-1,3,4a,8a-tetraza-cyclopentanaphthalene-9-one] |
| > 100 nM | 2-n-butyl-5-hydroxymethyl-8-methyl-5,6,7,8-tetrahydro-1H,4H-1,3,4a,8a-tetraza-cyclopentanaphthalene-9-one [Compound No. 541] |
| 9.1 nM | C/C=C/c1nc2c(n1Cc1ccc(-c3ccccc3-c3nnn[nH]3)cc1)C(=O)N1N(C2)C2(CC)CCC1(CC)CC2 [compound 521, 5,8-diethyl-5,8-ethano-2-(1-E-propenyl)-5,6,7,8-tetrahydro-1-[{2'-(1H-tetrazol-5-yl)biphenyl-4-yl}methyl]-1H,4H-1,3,4a,8a-tetraza-cyclopentanaphthalene-9-one] |
| > 100 nM | CCCCc1nc2c(=O)n3n(c(=O)c2n1Cc1ccc(C(=O)O)cc1)C(C(=O)O)CCC3C (stereo not shown) [compound 121, 2-n-butyl-1-[(4-carboxyphenyl)methyl]-4,9-dioxo-5-methyl-5,6,7,8-tetrahydro-1H-1,3,4a,8a-tetraza-cyclopentanaphthalene-8-carboxylic acid] |
| > 100 nM | CCc1nc2c(=O)n3n(c(=O)c2n1Cc1ccc(-c2ccccc2-c2nn[nH]n2)cc1)C1(CC)CCC3(CC)CC1 [compound 355, 5,8-diethyl-5,8-ethano-2-ethyl-5,6,7,8-tetrahydro-1-[{2'-(1H-tetrazol-5-yl)biphenyl-4-yl}methyl]-1H-1,3,4a,8a-tetraza-cyclopentanaphthalene-4,9-dione] |
| 20 nM | CCCc1nc2c(n1Cc1ccc(-c3ccccc3-c3nnn[nH]3)cc1)C(=O)N1C(c3ccccc3)CCCN1C2 (stereo not shown) [Compound No. 470, 8-phenyl-2-n-propyl-5,6,7,8-tetrahydro-1-[{2'-(1H-tetrazol-5-yl)biphenyl-4-yl}methyl]-1H,4H-1,3,4a,8a-tetraza-cyclopentanaphthalene-9-one] |
| > 100 nM | CCCCc1nc2c(=O)n3n(c(=O)c2n1Cc1ccc(C(=O)O)cc1)C(C)CCC3C(=O)O (stereo not shown) [compound 124, 2-n-butyl-1[(4-carboxyphenyl)methyl]-4,9-dioxo-8-methyl-5,6,7,8-tetrahydro-1H-1,3,4a,8a-tetraza-cyclopentanaphthalene-5-carboxylic acid] |
